Our source for the IC50 values is patent US10597383B2, “Bicyclic proline compounds” (Genentech, Inc., priority 2016, dated 2020).

This experiment has as its target human TRPA1 (Homo sapiens (Human), UniProt O75762). The experiment can be described thus: hTRPA1 CHO Ca2+ AUC EVO (IC50); FLIPR Tetra block of cinnamaldehyde induced calcium influx. The class given is cell-based. The note with it: Table 3; CHO cells expressing TRPA1; 75 uM cinnamaldehyde (~EC80) as agonist. As for the experimental part: IC50 ([…]) of compounds on the human and rat TRPA1 channels were determined using a FLIPR Tetra instrument. CHO cells expressing TRPA1 were plated into 384-well plates, incubated overnight at 37° C., and loaded with BD calcium indicator dye for 1 hr at 37° C. followed by 15 minutes. at room temperature. The assay buffer was Hank's Balanced Salt Solution (HBSS) containing 20 mM HEPES (pH readjusted to 7.4) along with 0.02% BSA.
Following dye load and plate cool down, compounds were added to the cells using FLIPR Tetra. Plates were then incubated with compounds for 20 minutes at room temperature prior to adding agonist. Following this incubation, ˜EC80 concentration of cinnamaldehyde (75 uM for human TRPA1 and 45 uM for rat TRPA1) was added to active the channels and block of cinnamaldehyde induced calcium influx was measured.
IC50 values were fit with a standard Hill function, keeping the Hill coefficient (n) fixed to 1.5. Fixing the Hill coefficient will generally reduce variability of the IC50 determination. The IC50 values were individually examined to make sure the MIN and MAX points were set correctly prior to validation of the results.

Structures are written as SMILES.

Sequence of human TRPA1 (O75762 whole entry): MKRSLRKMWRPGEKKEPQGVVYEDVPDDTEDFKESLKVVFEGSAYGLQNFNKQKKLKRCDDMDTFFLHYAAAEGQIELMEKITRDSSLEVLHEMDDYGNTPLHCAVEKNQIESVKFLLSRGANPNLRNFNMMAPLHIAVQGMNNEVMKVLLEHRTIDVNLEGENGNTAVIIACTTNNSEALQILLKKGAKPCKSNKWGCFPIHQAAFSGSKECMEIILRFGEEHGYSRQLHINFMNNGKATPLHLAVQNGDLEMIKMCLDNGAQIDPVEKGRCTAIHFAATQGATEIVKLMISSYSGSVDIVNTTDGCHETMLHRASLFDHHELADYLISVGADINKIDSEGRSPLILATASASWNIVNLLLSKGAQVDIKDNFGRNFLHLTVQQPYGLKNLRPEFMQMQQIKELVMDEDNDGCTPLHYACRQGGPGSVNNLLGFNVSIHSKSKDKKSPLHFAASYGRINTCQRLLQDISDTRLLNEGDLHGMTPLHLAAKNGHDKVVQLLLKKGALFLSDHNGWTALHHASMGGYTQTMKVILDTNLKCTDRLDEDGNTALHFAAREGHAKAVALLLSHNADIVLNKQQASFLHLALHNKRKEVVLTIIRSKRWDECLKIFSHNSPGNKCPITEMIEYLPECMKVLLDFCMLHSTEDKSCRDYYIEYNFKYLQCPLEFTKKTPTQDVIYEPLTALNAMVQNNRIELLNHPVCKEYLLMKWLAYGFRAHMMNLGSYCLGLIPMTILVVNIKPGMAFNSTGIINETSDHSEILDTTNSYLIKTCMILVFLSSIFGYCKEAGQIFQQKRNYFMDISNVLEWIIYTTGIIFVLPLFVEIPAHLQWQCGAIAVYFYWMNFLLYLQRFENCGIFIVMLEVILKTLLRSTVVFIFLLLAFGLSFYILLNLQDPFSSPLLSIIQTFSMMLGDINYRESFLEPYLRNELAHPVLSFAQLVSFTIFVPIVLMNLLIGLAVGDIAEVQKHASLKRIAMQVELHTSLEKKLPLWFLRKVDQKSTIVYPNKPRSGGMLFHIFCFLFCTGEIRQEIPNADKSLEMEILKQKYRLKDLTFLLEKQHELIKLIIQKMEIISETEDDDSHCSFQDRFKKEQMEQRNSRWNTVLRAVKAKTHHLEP

Usually IC50 stands for the concentration needed to halve the response being measured. With `O=C(NCc1cc(-c2cnc(C(F)(F)F)nc2)ncc1Br)[C@@H]1C2CC(C2)N1S(=O)(=O)c1ccc(F)cc1` [compound 14, (2S)-N-[[5-bromo-2-[2-(trifluoromethyl)pyrimidin-5-yl]-4-pyridyl]methyl]-3-(4-fluorophenyl)sulfonyl-3-azabicyclo[2.1.1]hexane-2-carboxamide], the IC50 was 3.82 nM.
`O=C(NCc1cc(-c2cnc(C(F)(F)F)nc2)ncc1OC(F)(F)F)[C@@H]1C2CC(C2)N1S(=O)(=O)c1ccc(F)cc1` [compound 15, (2S)-3-(4-fluorophenyl)sulfonyl-N-[[5-(trifluoromethoxy)-2-[2-(trifluoromethyl)pyrimidin-5-yl]-4-pyridyl]methyl]-3-azabicyclo[2.1.1]hexane-2-carboxamide]: the IC50 was 2.77 nM.
Turning to `O=C(NCc1cc(-c2cnc(C(F)(F)F)nc2)ccc1F)[C@@H]1C2CC(C2)N1S(=O)(=O)c1ccc(F)cc1` [compound 16, (2S)-3-(4-fluorophenyl)sulfonyl-N-[[2-fluoro-5-[2-(trifluoromethyl)pyrimidin-5-yl]phenyl]methyl]-3-azabicyclo[2.1.1]hexane-2-carboxamide], the IC50 stood at 9.89 nM.
In the case of `O=C(NCc1cc(-c2ccc(C(F)(F)F)nc2)ccc1F)[C@@H]1C2CC(C2)N1S(=O)(=O)c1ccc(F)cc1` [compound 17, (2S)-3-(4-fluorophenyl)sulfonyl-N-[[2-fluoro-5-[6-(trifluoromethyl)-3-pyridyl]phenyl]methyl]-3-azabicyclo[2.1.1]hexane-2-carboxamide], the IC50 was 6.06 nM.
For `Cn1nc(C(F)(F)F)cc1-c1ccc(F)c(CNC(=O)[C@@H]2C3CC(C3)N2S(=O)(=O)c2ccc(F)cc2)c1` [compound 18, (2S)-N-[[2-fluoro-5-[2-methyl-5-(trifluoromethyl)pyrazol-3-yl]phenyl]methyl]-3-(4-fluorophenyl)sulfonyl-3-azabicyclo[2.1.1]hexane-2-carboxamide] the value was 15.7 nM.
`O=C(NCc1cc(F)cc(-c2cnc(C(F)(F)F)nc2)c1)[C@@H]1C2CC(C2)N1S(=O)(=O)c1ccc(F)cc1` [compound 19, (2S)-3-(4-fluorophenyl)sulfonyl-N-[[3-fluoro-5-[2-(trifluoromethyl)pyrimidin-5-yl]phenyl]methyl]-3-azabicyclo[2.1.1]hexane-2-carboxamide]: the IC50 is 8.97 nM.
Take `O=C(NCc1cc(F)cc(-c2ccc(C(F)(F)F)nc2)c1)[C@@H]1C2CC(C2)N1S(=O)(=O)c1ccc(F)cc1` [compound 20, (2S)-3-(4-fluorophenyl)sulfonyl-N-[[3-fluoro-5-[6-(trifluoromethyl)-3-pyridyl]phenyl]methyl]-3-azabicyclo[2.1.1]hexane-2-carboxamide]: the IC50 turned out to be 6.11 nM.
Consider `Cn1nc(C(F)(F)F)cc1-c1cc(F)cc(CNC(=O)[C@@H]2C3CC(C3)N2S(=O)(=O)c2ccc(F)cc2)c1` [compound 21, (2S)-N-[[3-fluoro-5-[2-methyl-5-(trifluoromethyl)pyrazol-3-yl]phenyl]methyl]-3-(4-fluorophenyl)sulfonyl-3-azabicyclo[2.1.1]hexane-2-carboxamide], for which the IC50 turned out to be 27.6 nM.
Regarding `O=C(NCc1cn(-c2cnc(C(F)(F)F)nc2)nc1C(F)(F)F)[C@@H]1C2CC(C2)N1S(=O)(=O)c1ccc(F)cc1` [compound 29, (2S)-3-(4-fluorophenyl)sulfonyl-N-[[3-(trifluoromethyl)-1-[2-(trifluoromethyl)pyrimidin-5-yl]pyrazol-4-yl]methyl]-3-azabicyclo[2.1.1]hexane-2-carboxamide], the IC50 turned out to be 4.84 nM.
Consider `O=C(NCc1cc(-c2cnc(C(F)(F)F)nc2)nc(C(F)(F)F)n1)[C@@H]1C2CC(C2)N1S(=O)(=O)c1ccc(F)cc1` [compound 30, (2S)-3-(4-fluorophenyl)sulfonyl-N-[[2-(trifluoromethyl)-6-[2-(trifluoromethyl)pyrimidin-5-yl]pyrimidin-4-yl]methyl]-3-azabicyclo[2.1.1]hexane-2-carboxamide], for which the IC50 is 1.18 nM.
`O=C(NCc1cc(-c2cnc(C(F)(F)F)nc2)ncc1C(F)(F)F)[C@@H]1C2CC(C2)N1S(=O)(=O)c1cc2cc(F)ccc2o1` [compound 31, (2S)-3-(5-fluorobenzofuran-2-yl)sulfonyl-N-[[5-(trifluoromethyl)-2-[2-(trifluoromethyl)pyrimidin-5-yl]-4-pyridyl]methyl]-3-azabicyclo[2.1.1]hexane-2-carboxamide]: the IC50 stood at 1.85 nM.
Turning to `O=C(NCc1cc(-c2cnc(C(F)(F)F)nc2)cc(C2CC2)n1)[C@@H]1C2CC(C2)N1S(=O)(=O)c1ccc(F)cc1` [compound 32, (2S)-N-[[6-cyclopropyl-4-[2-(trifluoromethyl)pyrimidin-5-yl]-2-pyridyl]methyl]-3-(4-fluorophenyl)sulfonyl-3-azabicyclo[2.1.1]hexane-2-carboxamide], the IC50 stood at 7.24 nM.
`O=C(NCc1cc(-c2cnc(C(F)(F)F)nc2)nc(C2CC2)c1)[C@@H]1C2CC(C2)N1S(=O)(=O)c1ccc(F)cc1` [compound 33, (2S)-N-[[2-cyclopropyl-6-[2-(trifluoromethyl)pyrimidin-5-yl]-4-pyridyl]methyl]-3-(4-fluorophenyl)sulfonyl-3-azabicyclo[2.1.1]hexane-2-carboxamide]: the IC50 worked out at 3.55 nM.
With `COc1nn(-c2cnc(C(F)(F)F)nc2)cc1CNC(=O)[C@@H]1C2CC(C2)N1S(=O)(=O)c1ccc(F)cc1` [compound 34, (2S)-3-(4-fluorophenyl)sulfonyl-N-[[3-methoxy-1-[2-(trifluoromethyl)pyrimidin-5-yl]pyrazol-4-yl]methyl]-3-azabicyclo[2.1.1]hexane-2-carboxamide] the figure was 19.1 nM; with `O=C(NCc1cc(-c2cnc(C(F)(F)F)nc2)nc(OCC(F)(F)F)n1)[C@@H]1C2CC(C2)N1S(=O)(=O)c1ccc(F)cc1` [compound 35, (2S)-3-(4-fluorophenyl)sulfonyl-N-[[2-(2,2,2-trifluoroethoxy)-6-[2-(trifluoromethyl)pyrimidin-5-yl]pyrimidin-4-yl]methyl]-3-azabicyclo[2.1.1]hexane-2-carboxamide], 4.24 nM.
